Literature values as cited in patent US9861579B2, “Foamable formulation” (Nuvo Pharmaceuticals Inc., priority 2010, dated 2018).

log P: 3.6 | solubility in water (practically insoluble in water): < 100 µg/mL
Compound: CC(C)Cc1ccc(C(C)C(=O)O)cc1 (racemic) [Ibuprofen, 2-(4-isobutylphenyl) propanoic acid]
